In US20220211692A1, “Modulators of the Cystic Fibrosis Transmembrane Conductance Regulator Protein and Methods of Use” (AbbVie Global Enterprises Ltd., priority 2021, published 2022):
Where two headings read alike, the source gives them in different places.

Columns and labels:
[1] = molecular target: T1, F508del/F508del CFTR (Homo sapiens, UniProt P13569, DEL508-508); assay: Trans-Epithelial Current Clamp (TECC) assay using primary human bronchial epithelial cells; assay type: cell-based; details: for Emax (% Dual): maximum percent activity relative to positive control (co-corrector 0.15 μM + potentiator 0.45 μM = 100%); for EC50: primary hBE cells F508del/F508del, test corrector with co-corrector and potentiator, 18-24 hours, equivalent CFTR current
T1 construct: cells isolated from CF patients with the homozygous mutation; endogenous in cells; host or cells: primary human bronchial epithelial (hBE) cells from CF patients homozygous for F508del
Excerpt: A cell-based assay was developed using the primary human bronchial epithelial cells (hBE cells) with F508del/F508del CFTR and other mutations.
Primary human bronchial epithelial (hBE) cells from CFTR patients with homozygous F508del/F508del mutation were expanded from 1×10^6 to 250×10^6 cells (Neuberger, T et al., 2011, Methods Mol Biol 741:39-54). For this purpose, cells isolated from CF patients with the homozygous mutation, procured from the CF center tissue procurement and cell culture core at the Marsico Lung Institute at UNC (Randell), the Cystic Fibrosis translational research center at McGill University (University), and Rosalind Franklin University Medical School (RFUMS) were seeded onto 24 well Corning (Cat #3378) filter plates that were coated with 3T3 conditioned media and grown at an air-liquid interface for 35 days using an Ultroser® G supplemented differentiation media. All the primary human bronchial epithelial cells were collected in accordance with institutional review board approval protocols. Apical surface mucus was removed 72 hours before the experiment by incubating the apical surface of the cells for 30 minutes with 3 mM dithiothreitol (DTT) prepared in Dulbecco's phosphate buffered saline (DPBS) with Ca^2+ and Mg^2+. This was followed with aspiration of the mucus from the apical surface along with DPBS. The apical surface was re-washed with phosphate buffered saline (PBS) incubated for 30 minutes followed with aspiration. These hBE cells were then incubated with the desired concentrations of the test C2 corrector compounds along with co-corrector, 4-[(2R,4R)-4-({[1-(2,2-difluoro-1,3-benzodioxol-5-yl)cyclopropyl]carbonyl}amino)-7-(difluoromethoxy)-3,4-dihydro-2H-chromen-2-yl]benzoic acid and potentiator, (5-{3-amino-5-[4-(trifluoromethoxy)benzene-1-sulfonyl]pyridin-2-yl}-1,3,4-oxadiazol-2-yl)methanol, for 18-24 hours at 37° C., 5% CO2. The desired concentrations of the correctors and potentiator compounds were prepared from the 10 mM stocks in differentiation media and were always applied on the basolateral side of the epithelial cells. We also used an assay format where a fixed concentration of potentiator was added chronically along with the corrector compounds. This chronic treatment with the potentiator helped eliminate any interaction that might happen with CFTR modulators (correctors and potentiators) and thereby determined the true efficacy of the modulator combinations reflective of clinical relevance.
The assay uses a Transepithelial Current Clamp (TECC) (Vu, C B et al., 2017; J Med Chem 60:458-473) instrument that can measure the functionality of the mutated channel by measuring the equivalent CFTR current (IEQ) generated by the polarized primary epithelial cells. We used a TECC-24 with a 24-channel electrode manifold allowing for the simultaneous measurement of the transepithelial voltage, VT, and transepithelial resistance, RT, under current clamp conditions, from 24 filters using a 24 well Costar filter plate. The design of the filters in the 24 well filter plates was exactly the same as the design of an individual Transwell filter used in the classical Ussing Chamber with a surface area of 0.33 cm^2. Each measured VT values were corrected for the electrode offset potential measured using buffer alone in a separate plate, and each measured RT values were then corrected for the combined solution series and empty filter resistances. The corrected VT and RT values were then used to calculate the equivalent current, IEQ using Ohm's law (IEQ=VT/RT). The area under the curve (AUC) for the time period between the forskolin peak IEQ response and at the time of bumetanide addition was also calculated using a one-third trapezoid method, in addition to calculating the IEQ. The assay was run in a 24-well format and all 24-wells were measured at the same time point giving a higher throughput for this assay. […]

[2] = molecular target: T2, F508delCFTR (Homo sapiens, UniProt P13569, DEL508-508); assay: Cell Surface Expression-Horse Radish Peroxidase (CSE-HRP) assay in CFBE41o-F508delCFTR-HRP cells; assay type: cell-based; details: for EC50: CFBE41o-F508delCFTR-HRP cells, 18-24 hours at 33° C.; for Emax / Maximum % activity (with co-corrector): normalized to on-plate positive control; for Emax: read-out: Maximum % activity (without co-corrector)
T2 construct: expressed in transfected cells; host or cells: CFBE41o- human lung derived epithelial cell line, doxycycline-induced expression
Protocol: A cellular assay for measuring the F508delCFTR cell surface expression after correction with test compounds either without or with a co-corrector (2 μM of 3-[(2R,4R)-4-({[1-(2,2-difluoro-1,3-benzodioxol-5-yl)cyclopropyl]carbonyl}amino)-7-methoxy-3,4-dihydro-2H-chromen-2-yl]benzoic acid), was developed in human lung derived epithelial cell line (CFBE41o-) (Veit G et al, (2012) Mol Biol Cell. 23(21): 4188-4202). The development was achieved by expressing the F508delCFTR mutation along with a horseradish peroxidase (HRP) in the fourth exofacial loop, and then measuring the HRP activity using luminescence readout from these cells, CFBE41o-F508delCFTR-HIRP, that were incubated overnight with the test corrector compounds, either without or with the co-corrector. For this primary assay, the CFBE41o-F508delCFTR-HRP cells were plated in 384-well plates (Greiner Bio-one; Cat 781080) at 4,000 cells/well along with 0.5 μg/mL doxycycline to induce the F508delCFTR-HRP expression and further incubated at 37° C., […] for 68-72 hours. The test compounds were then added either without or with a co-corrector at the required concentrations and further incubated for 18-24 hours at 33° C. The highest concentration tested was 20 μM or 30 μM (GI-1 to GIII-36) with an 8-point concentration response curve using a 3-fold dilution in both the test compound without or with the co-corrector. Three replicate plates were run to determine one EC50. All plates contained negative controls (dimethyl sulfoxide, DMSO) and positive control (2 μM or 3 μM (GI-1 to GIII-36) of 3-[(2R,4R)-4-({[1-(2,2-difluoro-1,3-benzodioxol-5-yl)cyclopropyl]carbonyl}amino)-7-methoxy-3,4-dihydro-2H-chromen-2-yl]benzoic acid) as well as on-plate concentration response of the positive control. Post incubation, the plates were washed 5× times with Dulbecco's phosphate buffered saline (DPBS), followed by the addition of the HRP substrate, luminol (50 μL), and measuring the HRP activity using luminescence readout on EnVision® Multilabel Plate Reader (Perkin Elmer; product number 2104-0010). The raw counts from the experiment were analyzed using Accelrys® Assay Explorer v3.3.
Z′ greater than 0.5 was used as passing quality control criteria for the plates. The Z′ is defined as:
1−[3*SDPositive Control+3*SDNegative Control/Absolute(MeanPositive Control−MeanNegative Control)]
The % activity measured at each of the 8 test concentrations of the test compound added either without or with a co-corrector (2 μM or 3 μM (GI-1 to GIII-36) of 3-[(2R,4R)-4-({[1-(2,2-difluoro-1,3-benzodioxol-5-yl)cyclopropyl]carbonyl}amino)-7-methoxy-3,4-dihydro-2H-chromen-2-yl]benzoic acid) was normalized to the on-plate positive control using the following formulae:
% activity (Test compound without co-corrector)=[(test compound without co-corrector response−DMSO response)/(positive control response−DMSO response)]*100
% activity (Test compound with co-corrector)=[(test compound with co-corrector response−DMSO response)/(positive control response−DMSO response)]*100
The maximum % activity achieved for the test compound either without or with a co-corrector at any tested concentration is presented in Table 3 along with the respective EC50's calculated using the following general sigmoidal curve with variable Hill slope equation (described as Model 42 in the Accelrys® Assay Explorer v3.3 software):
General sigmoidal curve with concentration, response, top, bottom, EC50 and Hill slope. This model describes a sigmoidal curve with an adjustable baseline, a. The equation can be used to fit curves where response is either increasing or decreasing with respect to the independent variable, “x”.

[3] = with co-corrector 2 μM, read-out: EC50 (with co-corrector)
[4] = without co-corrector, read-out: EC50 (without co-corrector)

T2 sequence (P13569 with tags, fused parts or gaps DEL508-508): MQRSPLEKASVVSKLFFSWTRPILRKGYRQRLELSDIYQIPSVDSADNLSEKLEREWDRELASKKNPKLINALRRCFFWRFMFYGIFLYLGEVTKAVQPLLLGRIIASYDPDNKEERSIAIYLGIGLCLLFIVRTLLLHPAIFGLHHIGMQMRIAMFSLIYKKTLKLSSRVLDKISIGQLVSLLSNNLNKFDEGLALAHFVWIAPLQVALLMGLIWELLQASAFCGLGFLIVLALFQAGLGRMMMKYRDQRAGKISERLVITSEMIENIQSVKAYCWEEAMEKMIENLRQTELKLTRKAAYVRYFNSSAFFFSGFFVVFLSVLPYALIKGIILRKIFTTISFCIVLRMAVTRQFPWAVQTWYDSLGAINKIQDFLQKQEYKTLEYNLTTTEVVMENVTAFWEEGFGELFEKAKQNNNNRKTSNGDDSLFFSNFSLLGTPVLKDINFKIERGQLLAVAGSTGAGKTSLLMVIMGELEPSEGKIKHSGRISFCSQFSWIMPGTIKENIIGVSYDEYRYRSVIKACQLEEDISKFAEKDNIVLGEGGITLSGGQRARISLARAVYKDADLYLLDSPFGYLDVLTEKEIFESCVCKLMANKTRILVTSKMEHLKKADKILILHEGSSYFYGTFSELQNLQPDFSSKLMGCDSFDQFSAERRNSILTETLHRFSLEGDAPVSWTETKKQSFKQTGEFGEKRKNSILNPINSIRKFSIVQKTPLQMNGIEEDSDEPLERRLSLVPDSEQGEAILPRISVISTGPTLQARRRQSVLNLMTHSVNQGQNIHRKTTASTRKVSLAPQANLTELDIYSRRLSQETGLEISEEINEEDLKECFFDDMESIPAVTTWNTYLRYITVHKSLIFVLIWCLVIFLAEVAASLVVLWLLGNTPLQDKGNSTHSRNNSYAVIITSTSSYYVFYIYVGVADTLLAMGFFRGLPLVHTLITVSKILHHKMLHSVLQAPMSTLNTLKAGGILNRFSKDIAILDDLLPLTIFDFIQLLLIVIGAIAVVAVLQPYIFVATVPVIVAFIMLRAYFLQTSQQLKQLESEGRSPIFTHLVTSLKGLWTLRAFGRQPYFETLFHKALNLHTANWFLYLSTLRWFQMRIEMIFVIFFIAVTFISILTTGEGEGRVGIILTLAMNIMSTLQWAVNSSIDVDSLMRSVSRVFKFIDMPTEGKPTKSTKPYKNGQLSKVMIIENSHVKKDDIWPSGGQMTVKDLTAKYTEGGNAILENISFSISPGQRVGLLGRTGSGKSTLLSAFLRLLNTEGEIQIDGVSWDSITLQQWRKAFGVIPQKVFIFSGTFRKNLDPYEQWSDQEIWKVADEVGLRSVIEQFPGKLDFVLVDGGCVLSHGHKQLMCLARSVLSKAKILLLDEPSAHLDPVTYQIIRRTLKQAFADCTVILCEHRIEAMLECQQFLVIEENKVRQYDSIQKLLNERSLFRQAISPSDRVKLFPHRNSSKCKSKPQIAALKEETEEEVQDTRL
T1 sequence (P13569 with tags, fused parts or gaps DEL508-508): as above

SMILES	Emax (% Dual) [1] [% Dual]	EC50 [1] [nM]	EC50 [2, 3] [nM]	EC50 [2, 4] [nM]	Emax ([2]; without co-corrector) [%]	Maximum % activity (with co-corrector) ([2]; with co-corrector 2 μM) [%]
CCOc1ccc(C)cc1[C@@]1(C(=O)NS(=O)(=O)c2cccc3nc(C)ccc23)CCCO1 (single isomer, unassigned) [Example 2]	318	82.5	780	1540	602	
COc1ccc(C)cc1C1(C(=O)NS(=O)(=O)c2cccc3nc(C)ccc23)CCC(c2ccccc2)O1 (stereo in doubt) [Example 7, (2S,5S)-2-(2-methoxy-5-methylphenyl)-N-(2-methylquinoline-5-sulfonyl)-5-phenyloxolane-2-carboxamide]	283	11.7	330	530	509	
COc1ccc(C)cc1[C@@]1(C(=O)NS(=O)(=O)c2cccc3nc(C)ccc23)CC[C@@H](c2ccccc2)O1 [Example 8, (2R,5S)-2-(2-methoxy-5-methylphenyl)-N-(2-methylquinoline-5-sulfonyl)-5-phenyloxolane-2-carboxamide]	339	3.2	440	590	702	
CCc1ccc(Oc2cccnc2OC)c(C2(C(=O)NS(=O)(=O)c3cccc4nc(C)ccc34)CCCO2)c1 (stereo not shown) [Example 18, 2-{5-ethyl-2-[(2-methoxypyridin-3-yl)oxy]phenyl}-N-(2-methylquinoline-5-sulfonyl)oxolane-2-carboxamide]	152	> 800				
COc1ccc(C)cc1[C@@]1(C(=O)NS(=O)(=O)c2cccc3nc(C)ccc23)C[C@@H](c2ccccc2)CO1 [Example 32, (2R,4S)-2-(2-methoxy-5-methylphenyl)-N-(2-methylquinoline-5-sulfonyl)-4-phenyloxolane-2-carboxamide]	263	20.8				

Other lines, results leading:

Emax (% Dual) [1] [% Dual]	EC50 [1] [nM]	EC50 [2, 3] [nM]	EC50 [2, 4] [nM]	Emax ([2]; without co-corrector) [%]	Maximum % activity (with co-corrector) ([2]; with co-corrector 2 μM) [%]	SMILES
161	244	2540	3490	334	871	CCc1ccc(OCC(C)OC)c([C@@]2(C(=O)NS(=O)(=O)c3cccc4nc(C)ccc34)CCCO2)c1 (stereo in doubt) [Example 14, (2R)-2-{5-ethyl-2-[(2S)-2-methoxypropoxy]phenyl}-N-(2-methylquinoline-5-sulfonyl)oxolane-2-carboxamide]
226	1710	3780	4940	233	546	CCOc1ccc(C)cc1[C@]1(C(=O)NS(=O)(=O)c2cccc3nc(C)ccc23)CCCO1 [Example 1, (2S)-2-(2-ethoxy-5-methylphenyl)-N-(2-methylquinoline-5-sulfonyl)oxolane-2-carboxamide]
242	7.8	1210	2270			COc1ccc(C)cc1[C@@]1(C(=O)NS(=O)(=O)c2cccc3nc(C)ccc23)CC(C)(C)CO1 [Example 5, (2R)-2-(2-methoxy-5-methylphenyl)-4,4-dimethyl-N-(2-methylquinoline-5-sulfonyl)oxolane-2-carboxamide]
235	19.5	1000	1360	712		CCOc1ccc(C)cc1[C@@]1(C(=O)NS(=O)(=O)c2cccc3nc(C4CC4)ccc23)CCCO1 [Example 6, (2R)—N-(2-cyclopropylquinoline-5-sulfonyl)-2-(2-ethoxy-5-methylphenyl)oxolane-2-carboxamide]
284	34.6					COc1ccc(C)cc1[C@]1(C(=O)NS(=O)(=O)c2cccc3nc(N)ccc23)CC(C)(C)CO1 [Example 34, (2S)—N-(2-aminoquinoline-5-sulfonyl)-2-(2-methoxy-5-methylphenyl)-4,4-dimethyloxolane-2-carboxamide]
248	443					COc1ccc(C)cc1[C@@]1(C(=O)NS(=O)(=O)c2cccc3nc(N)ccc23)CC(C)(C)CO1 [Example 35, (2R)—N-(2-aminoquinoline-5-sulfonyl)-2-(2-methoxy-5-methylphenyl)-4,4-dimethyloxolane-2-carboxamide]
216	59.9					COc1cccc([C@H]2CO[C@@](C(=O)NS(=O)(=O)c3cccc4nc(C)ccc34)(c3cc(C)ccc3OC)C2)c1 [Example 43, (2R,4S)-2-(2-methoxy-5-methylphenyl)-4-(3-methoxyphenyl)-N-(2-methylquinoline-5-sulfonyl)oxolane-2-carboxamide]
